Reference: US20060127980A1, “Human excitatory amino acid transporter-2 gene promoter and uses thereof” (priority 2003, published 2006)

Tested on: hEAAT2 promoter
Experiment: hEAAT2 promoter luciferase assay of agents in PHFA (FIG. 10)
Format: cell-based, human
Details: PHFA passage #3; 10 μM
Description: (§1) FIG. 10. Effect of various agents on hEAAT2 promoter activity on primary human fetal astrocytes (PHFA). A: ceftriaxone; B: amoxicillin; C: chloramphenicol; D: thiamphenicol; E: vancomycin; F: glycine; G: glutamate; H: DMSO; I: dibutyryl cAMP. PHFA (passage #3) were seeded at 1×10^5 cells/35-mm plate. Twenty-four h later cells were untreated (CON) or received the indicated compound at a final concentration of 10 μM. Forty-eight h later the cells were transfected with a FL pGL3/EAAT2 luciferase reporter construct (5 μg) plus a pSVβGalactosidase construct (1 μg) using the calcium phosphate precipitation method (Su et al. 2003, Proc. Natl. Acad. Sci. USA 100:1955-1960). After an additional 48 h, cell lysates were prepared and luciferase activity was determined using the Luciferase Assay System Kit (Promega, E1501) and luminescence determined using a luminometer (Turner Designs, TD20/20) (Su et al. 2003, Proc. Natl. Acad. Sci. USA 100:1955-1960). Data presented are the average of 3 independent plates±S.D. Qualitatively similar results were obtained in 2 additional experiments.
as §1, with “Identification of Agents that Modulate hEAAT2 Promoter Activity. FIGS. 10-12 show the effects” for “FIG. 10. Effect”, “in PHFA (FIG. 10), PHFA-Im (FIG. 11) and H4 glioma (FIG. 12) cells. In the studies shown in FIG. 10,” for “on primary human fetal astrocytes (PHFA). A: ceftriaxone; B: amoxicillin; C: chloramphenicol; D: thiamphenicol; E: vancomycin; F: glycine; G: glutamate; H: DMSO; I: dibutyryl cAMP.”

CCCC(=O)Nc1ncnc2c1ncn2[C@@H]1O[C@@H]2COP(=O)(O)O[C@H]2[C@H]1OC(=O)CCC [dbcAMP, dibutyryl cyclic AMP]
hEAAT2 promoter activity: potent stimulators
